Experimental data as given in patent publication US20230085307A1, “PYRIDAZINONE COMPOUND AND HERBICIDE” (NISSAN CHEMICAL CORPORATION, priority 2019, published 2023).

Tests used:
redroot pigweed [1] = assay: Test Example 4: herbicidal effect by soil treatment (Table 19, symbol N); type: in vivo, redroot pigweed (Amaranthus retroflexus); conditions: amount of applied herbicide 320 g/ha
Outline: (§1)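 Soil-surface application: an emulsion agent diluted with water to the predetermined dose is sprayed uniformly over seeds lying under roughly 1.5 cm of sterilized diluvial soil. Boxes stay in a greenhouse at 25° C. to 30° C. Three weeks later, each species is graded on previously defined criteria.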

false cleavers [2] = assay: Test Example 5: herbicidal effect by foliage application, plastic box (Table 20, symbol Q); type: in vivo, false cleavers (Galium spurium); conditions: foliage application, 320 g/ha, three weeks after application
Outline: (§2)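 Sow seeds spot-wise in sterilized diluvial soil; cover with ~1.5 cm soil. Grow 14 days in greenhouse, 25° C. to 30° C. Spray foliage with emulsion diluted to predetermined amount. Rate effect after 3 weeks.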

barnyard grass [3] = assay: Test Example 4: herbicidal effect by soil treatment (Table 19, symbol H); type: in vivo, barnyard grass (Echinochloa crus-galli); conditions: amount of applied herbicide 320 g/ha
Outline: as §1

Italian ryegrass [4] = assay: Test Example 4: herbicidal effect by soil treatment (Table 19, symbol K); type: in vivo, Italian ryegrass (Lolium multiflorum); conditions: amount of applied herbicide 320 g/ha
Outline: as §1

lambsquarters [5] = assay: Test Example 4: herbicidal effect by soil treatment (Table 19, symbol O); type: in vivo, lambsquarters (Chenopodium album); conditions: amount of applied herbicide 320 g/ha
Outline: as §1

chickweed [6] = assay: Test Example 4: herbicidal effect by soil treatment (Table 19, symbol P); type: in vivo, common chickweed (Stellaria media); conditions: amount of applied herbicide 320 g/ha
Outline: as §1

wild oat [7] = assay: Test Example 5: herbicidal effect by foliage application, plastic box (Table 20, symbol I); type: in vivo, wild oat (Avena fatua); conditions: foliage application, 320 g/ha, three weeks after application
Outline: as §2

barnyard grass [8] = assay: Test Example 5: herbicidal effect by foliage application, plastic box (Table 20, symbol H); type: in vivo, barnyard grass (Echinochloa crus-galli); conditions: foliage application, 320 g/ha, three weeks after application
Outline: as §2

Italian ryegrass [9] = assay: Test Example 5: herbicidal effect by foliage application, plastic box (Table 20, symbol K); type: in vivo, Italian ryegrass (Lolium multiflorum); conditions: foliage application, 320 g/ha, three weeks after application
Outline: as §2

velvetleaf [10] = assay: Test Example 4: herbicidal effect by soil treatment (Table 19, symbol M); type: in vivo, velvetleaf (Abutilon theophrasti); conditions: amount of applied herbicide 320 g/ha
Outline: as §1

windgrass [11] = assay: Test Example 5: herbicidal effect by foliage application, plastic box (Table 20, symbol L); type: in vivo, windgrass (Apera spica-venti); conditions: foliage application, 320 g/ha, three weeks after application
Outline: as §2

late watergrass = assay: Test Example 1: herbicidal activity, application before weed generation under submerged conditions (Table 16, symbol A); type: in vivo, late watergrass (Echinochloa oryzicola); conditions: 320 g/ha applied herbicide
Outline: (§3)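 Emulsion formulation, water-diluted to set dose, was put onto the flooded surface (4 cm depth, alluvial soil) the same day weeds were sown and 2.5-leaf rice transplanted. After 3 weeks at 25-30 °C under glass, each species was rated 0 (≤5% kill) to 5 (≥90% kill).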

green foxtail [12] = assay: Test Example 4: herbicidal effect by soil treatment (Table 19, symbol G); type: in vivo, green foxtail (Setaria viridis); conditions: amount of applied herbicide 320 g/ha
Outline: as §1

Chinese sprangletop = assay: Test Example 3: herbicidal effect by foliage application, Wagner pot (Table 18, symbol D); type: in vivo, chinese sprangletop (Leptochloa chinensis); conditions: 320 g/ha
Outline: (§4)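 Plants were sown in alluvial soil held under 0.1–0.5 cm standing water and grown 14 days in a greenhouse at 25–30 °C. An emulsifiable formulation, water-diluted to the set dose, was then sprayed onto the foliage, and effects were scored three weeks later using previously defined criteria.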

redroot pigweed [13] = assay: Test Example 5: herbicidal effect by foliage application, plastic box (Table 20, symbol N); type: in vivo, redroot pigweed (Amaranthus retroflexus); conditions: foliage application, 320 g/ha, three weeks after application
Outline: as §2

southern crabgrass [14] = assay: Test Example 4: herbicidal effect by soil treatment (Table 19, symbol F); type: in vivo, southern crabgrass (Digitaria ciliaris); conditions: amount of applied herbicide 320 g/ha
Outline: as §1

oval-leafed pondweed = assay: Test Example 1: herbicidal activity, application before weed generation under submerged conditions (Table 16, symbol C); type: in vivo, oval-leafed pondweed (Monochoria vaginalis); conditions: 320 g/ha applied herbicide
Outline: as §3

blackgrass [15] = assay: Test Example 5: herbicidal effect by foliage application, plastic box (Table 20, symbol J); type: in vivo, blackgrass (Alopecurus myosuroides); conditions: foliage application, 320 g/ha, three weeks after application
Outline: as §2

barnyard grass [16] = assay: Test Example 3: herbicidal effect by foliage application, Wagner pot (Table 18, symbol H); type: in vivo, barnyard grass (Echinochloa crus-galli); conditions: 320 g/ha
Outline: as §4

rice flat sedge = assay: Test Example 3: herbicidal effect by foliage application, Wagner pot (Table 18, symbol E); type: in vivo, rice flat sedge (Cyperus iria); conditions: 320 g/ha
Outline: as §4

false cleavers [17] = assay: Test Example 4: herbicidal effect by soil treatment (Table 19, symbol Q); type: in vivo, false cleavers (Galium spurium); conditions: amount of applied herbicide 320 g/ha
Outline: as §1

Japanese bulrush = assay: Test Example 1: herbicidal activity, application before weed generation under submerged conditions (Table 16, symbol B); type: in vivo, Japanese bulrush (Schoenoplectus juncoides); conditions: 320 g/ha applied herbicide
Outline: as §3

persian speedwell [18] = assay: Test Example 4: herbicidal effect by soil treatment (Table 19, symbol R); type: in vivo, Persian speedwell (Veronica persica); conditions: amount of applied herbicide 320 g/ha
Outline: as §1

green foxtail [19] = assay: Test Example 5: herbicidal effect by foliage application, plastic box (Table 20, symbol G); type: in vivo, green foxtail (Setaria viridis); conditions: foliage application, 320 g/ha, three weeks after application
Outline: as §2

southern crabgrass [20] = assay: Test Example 5: herbicidal effect by foliage application, plastic box (Table 20, symbol F); type: in vivo, southern crabgrass (Digitaria ciliaris); conditions: foliage application, 320 g/ha, three weeks after application
Outline: as §2

velvetleaf [21] = assay: Test Example 5: herbicidal effect by foliage application, plastic box (Table 20, symbol M); type: in vivo, velvetleaf (Abutilon theophrasti); conditions: foliage application, 320 g/ha, three weeks after application
Outline: as §2

chickweed [22] = assay: Test Example 5: herbicidal effect by foliage application, plastic box (Table 20, symbol P); type: in vivo, common chickweed (Stellaria media); conditions: foliage application, 320 g/ha, three weeks after application
Outline: as §2

blackgrass [23] = assay: Test Example 4: herbicidal effect by soil treatment (Table 19, symbol J); type: in vivo, blackgrass (Alopecurus myosuroides); conditions: amount of applied herbicide 320 g/ha
Outline: as §1

wild oat [24] = assay: Test Example 4: herbicidal effect by soil treatment (Table 19, symbol I); type: in vivo, wild oat (Avena fatua); conditions: amount of applied herbicide 320 g/ha
Outline: as §1

windgrass [25] = assay: Test Example 4: herbicidal effect by soil treatment (Table 19, symbol L); type: in vivo, windgrass (Apera spica-venti); conditions: amount of applied herbicide 320 g/ha
Outline: as §1

persian speedwell [26] = assay: Test Example 5: herbicidal effect by foliage application, plastic box (Table 20, symbol R); type: in vivo, Persian speedwell (Veronica persica); conditions: foliage application, 320 g/ha, three weeks after application
Outline: as §2

lambsquarters [27] = assay: Test Example 5: herbicidal effect by foliage application, plastic box (Table 20, symbol O); type: in vivo, lambsquarters (Chenopodium album); conditions: foliage application, 320 g/ha, three weeks after application
Outline: as §2

Structure (SMILES) | herbicidal effect rating, N: redroot pigweed (redroot pigweed [1]) | herbicidal effect grade, Q: false cleavers (false cleavers [2]) | herbicidal effect rating, H: barnyard grass (barnyard grass [3]) | herbicidal effect rating, K: Italian ryegrass (Italian ryegrass [4]) | herbicidal effect rating, O: lambsquarters (lambsquarters [5]) | herbicidal effect rating, P: chickweed (chickweed [6]) | herbicidal effect grade, I: wild oat (wild oat [7]) | herbicidal effect grade, H: barnyard grass (barnyard grass [8]) | herbicidal effect grade, K: Italian ryegrass (Italian ryegrass [9]) | herbicidal effect rating, M: velvetleaf (velvetleaf [10]) | herbicidal effect grade, L: windgrass (windgrass [11]) | Herbicidal effect on A: late watergrass (grade 0-5) (late watergrass) | herbicidal effect rating, G: green foxtail (green foxtail [12]) | herbicidal effect on D (Chinese sprangletop), rating 0-5 (Chinese sprangletop) | herbicidal effect grade, N: redroot pigweed (redroot pigweed [13]) | herbicidal effect rating, F: southern crabgrass (southern crabgrass [14]) | Herbicidal effect on C: oval-leafed pondweed (grade 0-5) (oval-leafed pondweed) | herbicidal effect grade, J: blackgrass (blackgrass [15]) | herbicidal effect on H (barnyard grass), rating 0-5 (barnyard grass [16]) | herbicidal effect on E (rice flat sedge), rating 0-5 (rice flat sedge) | further results
CCCCCCOc1ccc(-c2sc3ccccc3c2-c2c(O)c(C)nn(C)c2=O)cc1 [1-028] | 2 (Herbicidal rate of 20% or more and less than 40%) | 4 (Herbicidal rate of 70% or more and less than 90%) | 0 (Herbicidal rate of 5% or less (almost no effect)) | 0 (Herbicidal rate of 5% or less (almost no effect)) | 0 (Herbicidal rate of 5% or less (almost no effect)) | 0 (Herbicidal rate of 5% or less (almost no effect)) | 3 (Herbicidal rate of 40% or more and less than 70%) | 0 (Herbicidal rate of 5% or less (almost no effect)) | 2 (Herbicidal rate of 20% or more and less than 40%) | 0 (Herbicidal rate of 5% or less (almost no effect)) | 3 (Herbicidal rate of 40% or more and less than 70%) | 1 (Herbicidal rate of 5% or more and less than 20%) | 0 (Herbicidal rate of 5% or less (almost no effect)) | 0 (Herbicidal rate of 5% or less (almost no effect)) | 5 (Herbicidal rate of 90% or more (almost completely withered)) | 0 (Herbicidal rate of 5% or less (almost no effect)) | 0 (Herbicidal rate of 5% or less (almost no effect)) | 0 (Herbicidal rate of 5% or less (almost no effect)) | 3 (Herbicidal rate of 40% or more and less than 70%) | 4 (Herbicidal rate of 70% or more and less than 90%) | herbicidal effect rating, Q: false cleavers (false cleavers [17]): 0 (Herbicidal rate of 5% or less (almost no effect)); Herbicidal effect on B: Japanese bulrush (grade 0-5) (Japanese bulrush): 2 (Herbicidal rate of 20% or more and less than 40%); herbicidal effect rating, R: persian speedwell (persian speedwell [18]): 0 (Herbicidal rate of 5% or less (almost no effect)); herbicidal effect grade, G: green foxtail (green foxtail [19]): 4 (Herbicidal rate of 70% or more and less than 90%); herbicidal effect grade, F: southern crabgrass (southern crabgrass [20]): 0 (Herbicidal rate of 5% or less (almost no effect)); herbicidal effect grade, M: velvetleaf (velvetleaf [21]): 3 (Herbicidal rate of 40% or more and less than 70%); herbicidal effect grade, P: chickweed (chickweed [22]): 5 (Herbicidal rate of 90% or more (almost completely withered)); herbicidal effect rating, J: blackgrass (blackgrass [23]): 0 (Herbicidal rate of 5% or less (almost no effect)); herbicidal effect rating, I: wild oat (wild oat [24]): 0 (Herbicidal rate of 5% or less (almost no effect)); herbicidal effect rating, L: windgrass (windgrass [25]): 0 (Herbicidal rate of 5% or less (almost no effect)); herbicidal effect grade, R: persian speedwell (persian speedwell [26]): 3 (Herbicidal rate of 40% or more and less than 70%); herbicidal effect grade, O: lambsquarters (lambsquarters [27]): 3 (Herbicidal rate of 40% or more and less than 70%)
Cc1nn(C)c(=O)c(-c2c(-c3ccccc3OC(C)C)sc3ccccc23)c1O [1-017] | 0 (Herbicidal rate of 5% or less (almost no effect)) | 5 (Herbicidal rate of 90% or more (almost completely withered)) | 0 (Herbicidal rate of 5% or less (almost no effect)) | 0 (Herbicidal rate of 5% or less (almost no effect)) | 0 (Herbicidal rate of 5% or less (almost no effect)) | 4 (Herbicidal rate of 70% or more and less than 90%) | 4 (Herbicidal rate of 70% or more and less than 90%) | 4 (Herbicidal rate of 70% or more and less than 90%) | 2 (Herbicidal rate of 20% or more and less than 40%) | 0 (Herbicidal rate of 5% or less (almost no effect)) | 4 (Herbicidal rate of 70% or more and less than 90%) | 3 (Herbicidal rate of 40% or more and less than 70%) | 0 (Herbicidal rate of 5% or less (almost no effect)) | 0 (Herbicidal rate of 5% or less (almost no effect)) | 4 (Herbicidal rate of 70% or more and less than 90%) | 0 (Herbicidal rate of 5% or less (almost no effect)) | 3 (Herbicidal rate of 40% or more and less than 70%) | 4 (Herbicidal rate of 70% or more and less than 90%) | 5 (Herbicidal rate of 90% or more (almost completely withered)) | 3 (Herbicidal rate of 40% or more and less than 70%) | herbicidal effect rating, Q: false cleavers (false cleavers [17]): 0 (Herbicidal rate of 5% or less (almost no effect)); Herbicidal effect on B: Japanese bulrush (grade 0-5) (Japanese bulrush): 3 (Herbicidal rate of 40% or more and less than 70%); herbicidal effect rating, R: persian speedwell (persian speedwell [18]): 4 (Herbicidal rate of 70% or more and less than 90%); herbicidal effect grade, G: green foxtail (green foxtail [19]): 4 (Herbicidal rate of 70% or more and less than 90%); herbicidal effect grade, F: southern crabgrass (southern crabgrass [20]): 3 (Herbicidal rate of 40% or more and less than 70%); herbicidal effect grade, M: velvetleaf (velvetleaf [21]): 4 (Herbicidal rate of 70% or more and less than 90%); herbicidal effect grade, P: chickweed (chickweed [22]): 5 (Herbicidal rate of 90% or more (almost completely withered)); herbicidal effect rating, J: blackgrass (blackgrass [23]): 2 (Herbicidal rate of 20% or more and less than 40%); herbicidal effect rating, I: wild oat (wild oat [24]): 1 (Herbicidal rate of 5% or more and less than 20%); herbicidal effect rating, L: windgrass (windgrass [25]): 0 (Herbicidal rate of 5% or less (almost no effect)); herbicidal effect grade, R: persian speedwell (persian speedwell [26]): 5 (Herbicidal rate of 90% or more (almost completely withered)); herbicidal effect grade, O: lambsquarters (lambsquarters [27]): 3 (Herbicidal rate of 40% or more and less than 70%)
